Legend:
[1] = Particle size and polydispersity index (PDI) of lipid nanoparticles by dynamic light scattering; format: physicochemical; settings: LNP formulation prepared from the cationic lipid, 25° C.
Procedure: The particle size and polydispersity index (PDI) were determined by dynamic light scattering using Malvern laser particle size analyzer.
10 μL of the liposome solution was weighed, diluted to 1 mL with RNase-free deionized water, and added to the sample pool. Each sample was measured in triplicate. The measurement conditions were: […] scattering angle, and 25° C.

293T cells [2] = assay: Fluorescent detection of Fluc-mRNA (cell transfection efficiency of LNP formulations); format: cell-based; settings: for Multiples (YK-305): RLU of YK-305 / RLU of the lipid of the line; for Multiples (YK-310): RLU of YK-310 / RLU of the lipid of the line; for Multiples (YK-312): RLU of YK-312 / RLU of the lipid of the line; for Multiples (YK-318): RLU of YK-318 / RLU of the lipid of the line; for Multiples (YK-318) / Multiples (YK-319): Tables 5, 7, 11; for Multiples (YK-319): RLU of YK-319 / RLU of the lipid of the line; for Ratio relative to SM-102: RLU of the lipid / RLU of SM-102, times that of SM-102; for Relative light unit (RLU): LNP formulation of Fluc-mRNA, 96-well plate, 24 hours
Procedure: (§1) Cell recovery and passage: 293T cells were recovered, cultured in a culture dish, and passaged to the required number of cells.
(§2) Seeding plate: The cells in the culture dish were digested and counted. Cells were spread in a 96-well plate at 10,000 cells per well and in a 12-well plate at 150,000 cells per well. Cells were cultured overnight until the cells adhered to the wall.
(§3) Cell recovery and passage: the method was the same as in Example 3.
(§4) Seeding plate: the method was the same as in Example 3.
An LNP formulation containing […] of Fluc-mRNA (the carrier components of the LNP formulation were cationic lipid, neutral lipid, structured lipid and polymer-conjugated lipid with a molar ratio of 49:10:39.5:1.5, wherein the cationic lipid was listed in Table 1) was added to the cell culture medium of a 96-well plate, and further incubated for 24 hours. The corresponding reagent was added according to the instructions of the […] Luciferase Assay Kit, and the fluorescence expression intensity of each well was detected by an IVIS fluorescence detection system. This test verified the transfection efficiencies of LNP formulations in cells, see Tables 4-7 for specific test results.

293T cells [3] = assay: Cell survival rate determination (CCK-8); format: cell-based; settings: LNP formulation of Fluc-mRNA, 24 hours, CCK-8
Procedure: as §1, §2, §3, §4
An LNP formulation containing […] of Fluc-mRNA (the carrier components of the LNP formulation were cationic lipid, neutral lipid, structured lipid and polymer-conjugated lipid with a molar ratio of 49:10:39.5:1.5, wherein the cationic lipid was listed in Table 1) and the formulation of Lipofectamine 3000 were added to the cell culture medium of a 96-well plate, and further cultivated for 24 hours. 10 μL of CCK-8 solution was then added to each well, and the culture plate was incubated in an incubator for 1 hour. The absorbance at 450 nm was measured by a microplate reader.
Cell survival rate can represent the toxicity of cationic lipids to cells. The higher the cell survival rate, the lower the toxicity to cells.

female BALB/C mice = assay: Live imaging in mice: protein expression of Fluc-mRNA delivered by LNP formulations; format: in vivo
Procedure: In addition, the protein expression and duration of mRNA in mice delivered by the cationic lipid delivery carriers designed were also verified.
(§5) The LNP formulation containing […] Fluc-mRNA was injected intramuscularly into female BALB/C mice aged 4 to 6 weeks old and weighed 17 to 19 g, and the mice were intraperitoneally injected with fluorescent imaging substrate at specific time points after administration (6 h, 24 h, 48 h and 7 d), where the mice were free to move for 5 minutes, and then the average radiation intensity (corresponding to fluorescence expression intensity) of the protein expression of the mRNA carried by the LNP in the mice was detected by the IVIS Spectrum small animal live imaging device.

liver = assay: Distribution of liposomes in mice: protein expression in the liver (live imaging); format: in vivo; settings: at 6 h, intramuscular injection
Procedure: as §5
At 24 h, the LNP formulations prepared from all compounds had been metabolized in the liver and had no protein expression.

[4] = 6 h after intramuscular injection
[5] = 24 h after intramuscular injection
[6] = 48 h after intramuscular injection
[7] = 7 d after intramuscular injection

| SMILES | PDI (%) [1] [%] | Particle size (nm) [1] [nm] | protein expression in the liver (liver) | Multiples (YK-305) (293T cells [2]) | Multiples (YK-310) (293T cells [2]) | Multiples (YK-312) (293T cells [2]) | Multiples (YK-318) (293T cells [2]) | Multiples (YK-319) (293T cells [2]) | Ratio relative to SM-102 (293T cells [2]) | Cell survival rate (%) (293T cells [3]) | average radiation intensity (female BALB/C mice; [4]) | average radiation intensity (female BALB/C mice; [5]) | average radiation intensity (female BALB/C mice; [6]) | average radiation intensity (female BALB/C mice; [7]) | Relative light unit (RLU) (293T cells [2]) |
| --- | --- | --- | --- | --- | --- | --- | --- | --- | --- | --- | --- | --- | --- | --- | --- |
| CCCCCCCCC(CCCCCC)C(=O)OCCCCCCN(CCCCO)CCCCCCOC(=O)C(CCCCCC)CCCCCCCC (centres unmarked) [ALC-0315, reference compound] | 21.2 | 231 | had protein expression in the liver | 13.48 | 12.69 | 9.91 | 5.50 | 12.03 | 1.27 | 51.03 | 863760 | 190480 | 39810 | 7047 |  |
| CCCCCCCCC(CCCCCCCC)OC(=O)CCCCCCCN(CCO)CCCCCCCC(=O)OCCC(CCCCCC)CCCCCC [Compound 21, reference compound] |  |  | had protein expression in the liver | 19.14 | 18.01 | 14.07 | 7.81 | 17.08 | 0.89 | 70.21 | 610340 | 109840 | 30980 | 6445 | 1432170 |
| CCCCCCCCCCCOC(=O)CCCCCN(CCO)CCCCCCCC(=O)OC(CCCCCCCC)CCCCCCCC [SM-102, reference compound] | 28.2 | 177 | had protein expression in the liver |  | 16.08 | 12.56 | 6.98 | 15.25 | 1.00 | 69.45 | 701230 |  |  |  |  |
| CCCCCCCCC(CCCCCCCC)OC(=O)CCCCCN(CCCCCC(=O)OC(CCCCCCCC)CCCCCCCC)C[C@H](O)CN(CC)CCO [YK-313] | 17.7 | 241 | no protein expression in the liver | 31.63 | 29.77 | 23.25 |  |  | 0.54 | 68.93 | 442180 | 104430 | 25560 | 3235 | 866536 |

Now from value to molecule, other results behind:

| PDI (%) [1] [%] | Particle size (nm) [1] [nm] | protein expression in the liver (liver) | SMILES | Multiples (YK-305) (293T cells [2]) | Multiples (YK-310) (293T cells [2]) | Multiples (YK-312) (293T cells [2]) | Multiples (YK-318) (293T cells [2]) | Multiples (YK-319) (293T cells [2]) | Ratio relative to SM-102 (293T cells [2]) | Cell survival rate (%) (293T cells [3]) | average radiation intensity (female BALB/C mice; [4]) | average radiation intensity (female BALB/C mice; [5]) | average radiation intensity (female BALB/C mice; [6]) | average radiation intensity (female BALB/C mice; [7]) | Relative light unit (RLU) (293T cells [2]) |
| --- | --- | --- | --- | --- | --- | --- | --- | --- | --- | --- | --- | --- | --- | --- | --- |
| 15.2 | 147 | had protein expression in the liver | CCCCCCC(CCCCCC)CCOC(=O)CCCCCCCN(CCO)CCCCCCCC(=O)OCCC(CCCCCC)CCCCCC [Compound 23, bis(3-hexylnonyl)-8,8′-((2-hydroxyethyl)azanediyl)dioctanoate, reference compound] | 20.21 | 19.02 | 14.86 | 8.25 | 18.04 | 0.85 | 71.50 | 589400 | 104530 | 33125 | 6240 | 1356022 |
| 19.3 | 150 | had protein expression in the liver | CCCCCCCCCCCCC(O)CN(C)CCCCCC(=O)OCC(CCCCCC)CCCCCCCC (centres unmarked) [HHMA, reference compound] | 13.66 | 12.86 | 10.04 | 5.58 | 12.20 | 1.25 | 66.47 | 651020 | 119940 | 32557 | 5871 | 2006110 |
